Assay results as given in ChEMBL document CHEMBL4004847, “New tacrine-derived AChE/BuChE inhibitors: Synthesis and biological evaluation of 5-amino-2-phenyl-4H-pyrano[2,3-b]quinoline-3-carboxylates” (Eur J Med Chem, 2017).
In brackets after ≈: the same amount, converted by molar mass. Activity calls are given as the source filed them. The calls are words filed in the database; no cut-off is given here.

Assays:
Acetylcholinesterase [1] = molecular target: T1, Acetylcholinesterase (Electrophorus electricus, UniProt O42275)
Description: Inhibition of electric eel AChE using acetylthiocholine iodide as substrate preincubated for 5 mins followed by substrate addition measured for 1 min by Ellman's method

Cholinesterase = Cholinesterase (Homo sapiens, UniProt P06276)
Description: Inhibition of human BuChE using butyrylthiocholine iodide as substrate preincubated for 5 mins followed by substrate addition measured for 1 min by Ellman's method

HepG2 = test: cells; details: Homo sapiens, HepG2, 24 h
Description: Cytotoxicity against human HepG2 cells assessed as reduction in cell viability after 24 hrs by MTT assay

PC-12 [2] = test: Neuroprotective activity against H2O2-induced cell death in rat PC12 cells assessed as increase in cell viability at 100 uM preincubated for 3 hrs followed by H2O2 addition measured after 24 hrs by MTT assay; type: functional, cell-based
PC-12 [3] = test: Neuroprotective activity against H2O2-induced cell death in rat PC12 cells assessed as increase in cell viability at 10 uM preincubated for 3 hrs followed by H2O2 addition measured after 24 hrs by MTT assay; type: functional, cell-based
Acetylcholinesterase [4] = molecular target: T1, Acetylcholinesterase; test: Mixed-type inhibition of electric eel AChE preincubated for 5 mins followed by varying levels acetylthiocholine iodide substrate addition by Lineweaver-Burk plot analysis

T1 sequence (O42275 whole entry): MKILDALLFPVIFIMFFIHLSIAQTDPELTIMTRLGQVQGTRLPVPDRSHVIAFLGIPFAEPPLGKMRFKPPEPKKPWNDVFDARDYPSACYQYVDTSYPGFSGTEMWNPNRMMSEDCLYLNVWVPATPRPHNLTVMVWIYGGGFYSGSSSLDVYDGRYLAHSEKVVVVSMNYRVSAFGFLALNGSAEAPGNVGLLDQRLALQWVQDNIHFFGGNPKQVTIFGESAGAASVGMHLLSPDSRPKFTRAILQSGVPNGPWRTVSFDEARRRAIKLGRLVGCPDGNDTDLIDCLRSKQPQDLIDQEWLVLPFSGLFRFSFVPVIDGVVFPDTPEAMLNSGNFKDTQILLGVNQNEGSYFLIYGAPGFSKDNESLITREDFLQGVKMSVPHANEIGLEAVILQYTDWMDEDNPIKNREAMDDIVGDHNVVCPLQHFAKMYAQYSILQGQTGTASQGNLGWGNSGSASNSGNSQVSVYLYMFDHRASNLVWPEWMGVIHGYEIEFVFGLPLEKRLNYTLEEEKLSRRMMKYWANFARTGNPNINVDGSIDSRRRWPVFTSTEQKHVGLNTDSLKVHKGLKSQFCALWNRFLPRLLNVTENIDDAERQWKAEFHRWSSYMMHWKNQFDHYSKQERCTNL
Chain of Cholinesterase (P06276 whole entry): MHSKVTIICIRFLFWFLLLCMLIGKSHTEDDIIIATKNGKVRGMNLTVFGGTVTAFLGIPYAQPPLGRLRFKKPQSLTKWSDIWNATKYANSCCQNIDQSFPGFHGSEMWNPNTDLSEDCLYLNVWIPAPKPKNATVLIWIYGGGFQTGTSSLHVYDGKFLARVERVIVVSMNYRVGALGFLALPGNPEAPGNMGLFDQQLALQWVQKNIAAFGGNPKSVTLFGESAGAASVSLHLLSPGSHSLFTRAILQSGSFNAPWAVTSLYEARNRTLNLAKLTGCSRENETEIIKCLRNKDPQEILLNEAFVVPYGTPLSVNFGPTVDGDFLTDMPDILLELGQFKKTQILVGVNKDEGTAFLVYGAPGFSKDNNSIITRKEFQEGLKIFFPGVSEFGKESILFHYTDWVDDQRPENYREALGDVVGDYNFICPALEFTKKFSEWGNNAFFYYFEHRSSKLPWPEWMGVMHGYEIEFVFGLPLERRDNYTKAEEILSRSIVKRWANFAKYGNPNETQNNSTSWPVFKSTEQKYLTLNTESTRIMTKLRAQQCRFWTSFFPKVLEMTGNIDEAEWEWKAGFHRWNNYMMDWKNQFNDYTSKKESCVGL

| SMILES | IC50 (Acetylcholinesterase [1]) [nM] | IC50 (Cholinesterase) [nM] | IC50 (HepG2) [µg/mL] | Activity (PC-12 [2]) | Activity (PC-12 [3]) | Ki (Acetylcholinesterase [4]) [nM] |
| --- | --- | --- | --- | --- | --- | --- |
| CCOC(=O)C1=C(c2ccccc2)Oc2nc3c(c(N)c2C1c1ccc(Cl)cc1)CCCC3 (stereo not drawn) | 1100 | 17600 | – | – | – | – |
| CCOC(=O)C1=C(c2ccccc2)Oc2nc3c(c(N)c2C1c1ccc(F)cc1)CCCC3 (stereo not drawn) | 404 | 6100 | – | – | – | – |
| CCOC(=O)C1=C(c2ccccc2)Oc2nc3c(c(N)c2C1c1ccccc1)CCCC3 (stereo not drawn) | 423 | 5490 | – | – | – | – |
| CCOC(=O)C1=C(c2ccccc2)Oc2nc3c(c(N)c2C1c1ccc([N+](=O)[O-])cc1)CCCC3 (stereo not drawn) | 583 | 9910 | – | – | – | – |
| CCOC(=O)C1=C(c2ccccc2)Oc2nc3c(c(N)c2C1c1cccc([N+](=O)[O-])c1)CCCC3 (stereo not drawn) | 2730 | 40900 | > 100 | – | – | – |
| CCOC(=O)C1=C(c2ccccc2)Oc2nc3c(c(N)c2C1c1cccc(Cl)c1)CCCC3 (stereo not drawn) | 228 | 3100 | 50.4 (≈ 109 µM) | Active | – | – |
| CCOC(=O)C1=C(c2ccccc2)Oc2nc3c(c(N)c2C1c1ccc(OC)cc1)CCCC3 (stereo not drawn) | 480 | 5760 | – | – | – | – |
| CCOC(=O)C1=C(c2ccccc2)Oc2nc3c(c(N)c2C1c1ccc(Cl)cc1Cl)CCCC3 (stereo not drawn) | 1620 | 22700 | – | – | – | – |
| CCOC(=O)C1=C(c2ccccc2)Oc2nc3c(c(N)c2C1c1ccc(C)cc1)CCCC3 (stereo not drawn) | 4160 | 54100 | – | – | – | – |
| CCOC(=O)C1=C(c2ccccc2)Oc2nc3c(c(N)c2C1c1ccccc1Cl)CCCC3 (stereo not drawn) | 153 | 2140 | > 100 | Active | Active | – |
| CCOC(=O)C1=C(c2ccccc2)Oc2nc3c(c(N)c2C1c1cccc(OC)c1)CCCC3 (stereo not drawn) | 510 | 7140 | – | – | – | – |
| CCOC(=O)C1=C(c2ccccc2)Oc2nc3c(c(N)c2C1c1cccc(F)c1)CCCC3 (stereo not drawn) | 778 | 11700 | – | – | – | – |
| CCOC(=O)C1=C(c2ccccc2)Oc2nc3c(c(N)c2C1c1ccccc1F)CCCC3 (stereo not drawn) | 370 | 3630 | – | – | – | – |
| CCOC(=O)C1=C(c2ccccc2)Oc2nc3c(c(N)c2C1c1ccc(Br)cc1)CCCC3 (stereo not drawn) | 6220 | 74200 | – | – | – | – |
| CCOC(=O)C1=C(c2ccccc2)Oc2nc3c(c(N)c2C1c1ccccc1Br)CCCC3 (stereo not drawn) | 118 | 2760 | > 100 | Active | – | – |
| CCOC(=O)C1=C(c2ccccc2)Oc2nc3c(c(N)c2C1c1cccc(Br)c1)CCCC3 (stereo not drawn) | 69 | 1350 | 72.8 (≈ 144 µM) | Active | – | 48.5 |
